Consider 53 molecules from US20240000806A1, “METHODS AND MATERIALS FOR INHIBITING CB1 ACTIVITY” (University of Pittsburgh - Of the Commonwealth System of …, priority 2020, published 2024).

As a reminder, the pIC50 is −log10 of the IC50, conventionally taken in molar units.

pIC50: −log10 of the molar value.

CB1 (CNR1), sequence (P21554 whole entry, the tested form may be a part): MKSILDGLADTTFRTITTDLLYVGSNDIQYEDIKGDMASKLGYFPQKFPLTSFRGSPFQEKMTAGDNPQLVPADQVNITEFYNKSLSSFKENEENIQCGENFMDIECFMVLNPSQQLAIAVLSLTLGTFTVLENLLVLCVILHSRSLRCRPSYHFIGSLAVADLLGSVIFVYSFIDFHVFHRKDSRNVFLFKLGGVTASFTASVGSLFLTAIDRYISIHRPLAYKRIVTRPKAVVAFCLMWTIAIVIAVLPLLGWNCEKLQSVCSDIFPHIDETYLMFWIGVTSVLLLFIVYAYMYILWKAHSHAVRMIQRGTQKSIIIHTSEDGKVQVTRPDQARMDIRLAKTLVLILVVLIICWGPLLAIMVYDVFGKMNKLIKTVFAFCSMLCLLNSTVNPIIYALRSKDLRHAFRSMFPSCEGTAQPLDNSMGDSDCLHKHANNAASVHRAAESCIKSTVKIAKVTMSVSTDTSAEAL

For this assay, the target named is CB1 (CNR1) (Homo sapiens, UniProt P21554). The experiment in a line: cAMP CNR1 Hunter cell line antagonist assay (CB1 assay). The format is cell-based. The conditions noted are these: antagonist mode, cAMP CNR1 Hunter cells, EC80 agonist; read-out: CB1 assay, Efficacy (IC50). In outline:
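Antagonist mode in CNR1 Hunter cells: compound preincubated 30 min at 37 °C, then EC80 agonist for 30 min at 37 °C. cAMP measured by enzyme-fragment complementation chemiluminescence after lysis (1 h) and detection (3 h, room temperature); IC50 fitted from the dose response.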
Turning to `CC1Oc2c(cc(Br)cc2S(=O)(=O)Nc2ccc(Cl)cc2)N(C)C1=O` (centres unmarked) [BC19791], the pIC50 was at most 4.60.

With `CCC1Oc2cc(S(=O)(=O)Nc3cc(Cl)ccc3C)c(Cl)cc2NC1=O` (centres unmarked) [BC19215], the pIC50 was at most 4.60.

Turning to `CCc1ccc(NS(=O)(=O)c2cc3c(cc2Cl)NC(=O)C(CC)O3)cc1` (centres unmarked) [BC19741], the pIC50 is 4.60 to 6.00.

For the molecule `CCC1Oc2cc(S(=O)(=O)Nc3ccc(F)cc3)c(Cl)cc2NC1=O` (centres unmarked) [BC19731], the pIC50 was 4.60 to 6.00.

`Cc1c(Cl)cc2c(c1S(=O)(=O)Nc1ccc(Cl)cc1)OCC(=O)N2` [BC19434]: the pIC50 is at most 4.60.

Turning to `Cc1ccc(NS(=O)(=O)c2cc3c(cc2Br)NC(=O)CCO3)cc1` [BC19661], the pIC50 was above 6.00.

As to `CCc1cccc(NS(=O)(=O)c2cc(Br)cc3c2OCC(=O)N3)c1` [BC19180], the pIC50 is at most 4.60.

`O=C1COc2cc(S(=O)(=O)Nc3ccc(C(F)(F)F)cc3Cl)c(Br)cc2N1` [BC19390]: the pIC50 is at most 4.60.

Turning to `CCc1ccc(NS(=O)(=O)c2cc(Br)cc3c2OC(CC(C)C)C(=O)N3)cc1` (centres unmarked) [BC19763], the pIC50 is 4.60 to 6.00.

As to `CC1Oc2cc(S(=O)(=O)Nc3ccc(C(C)C)cc3)c(Br)cc2N(C)C1=O` (centres unmarked) [BC19794], the pIC50 is at most 4.60.

`CCC1Oc2cc(S(=O)(=O)Nc3ccc(Cl)cc3)c(Br)cc2N(C)C1=O` (centres unmarked) [BC19930]: the pIC50 is at most 4.60.

As for `CCC1Oc2cc(S(=O)(=O)Nc3ccc(OC)cc3)c(Cl)cc2NC1=O` (centres unmarked) [BC19211], the pIC50 is 4.60 to 6.00.

Turning to `Cc1ccc(NS(=O)(=O)c2cc3c(cc2Br)NC(=O)C(CC(C)C)O3)cc1Cl` (centres unmarked) [BC19768], the pIC50 is 4.60 to 6.00.

`COc1ccc(NS(=O)(=O)c2cc(Cl)cc3c2OC(C)C(=O)N3)cc1` (centres unmarked) [BC19707]: the pIC50 was at most 4.60.

Turning to `Cc1ccc(NS(=O)(=O)c2cc(Br)cc3c2OCCNC3=O)cc1F` [BC19552], the pIC50 is at most 4.60.

With `CC1Oc2cc(S(=O)(=O)Nc3ccc(F)cc3Cl)c(Br)cc2NC1=O` (centres unmarked) [BC19285], the pIC50 was 4.60 to 6.00.

As for `CC1Oc2c(cc(Br)cc2S(=O)(=O)Nc2cccc(Cl)c2)N(C)C1=O` (centres unmarked) [BC19904], the pIC50 was 4.60 to 6.00.

`CC(C)c1ccc(NS(=O)(=O)c2cc3c(cc2Cl)NC(=O)CO3)cc1` [BC19136]: the pIC50 was above 6.00.

As to `CCNS(=O)(=O)c1cc(Cl)cc2c1OC(C)C(=O)N2` (centres unmarked) [BC19294], the pIC50 is 4.60 to 6.00.

As for `O=C1COc2cc(S(=O)(=O)Nc3ccc(OC(F)(F)F)cc3)c(Cl)cc2N1` [BC19164], the pIC50 was above 6.00.

On to `CC1Oc2c(cc(Cl)cc2S(=O)(=O)Nc2ccccc2)NC1=O` (centres unmarked) [BC19291], for which the pIC50 was at most 4.60.

As for `CC(C)CC1Oc2c(cc(Br)cc2S(=O)(=O)Nc2ccc(F)cc2F)NC1=O` (centres unmarked) [BC19769], the pIC50 was 4.60 to 6.00.

On to `CC1Oc2cc(S(=O)(=O)NCc3ccc(OC(F)(F)F)cc3)c(Br)cc2NC1=O` (centres unmarked) [BC19357], for which the pIC50 is 4.60 to 6.00.

On to `CC1Oc2c(cc(Br)cc2S(=O)(=O)Nc2ccc(OC(F)(F)F)cc2)N(C)C1=O` (centres unmarked) [BC19783], for which the pIC50 is 4.60 to 6.00.

In the case of `Cc1ccc(NS(=O)(=O)c2cc3c(cc2Cl)NC(=O)C(C)O3)cc1` (centres unmarked) [BC19717], the pIC50 is at most 4.60.

Consider `COc1ccc(NS(=O)(=O)c2cc3c(cc2Br)NC(=O)CCO3)cc1Cl` [BC19694], for which the pIC50 is 4.60 to 6.00.

`CC1Oc2c(cc(Cl)cc2S(=O)(=O)Nc2ccc(F)c(F)c2)NC1=O` (centres unmarked) [BC19699]: the pIC50 was 4.60 to 6.00.

Regarding `O=C1COc2cc(S(=O)(=O)NCc3ccc(OC(F)(F)F)cc3)c(Br)cc2N1` [BC19392], the pIC50 was at most 4.60.

As for `Cc1ccc(NS(=O)(=O)c2c(C)c(Cl)cc3c2OCC(=O)N3)cc1Cl` [BC19433], the pIC50 is at most 4.60.

With `CC(C)CC1Oc2cc(S(=O)(=O)Nc3ccc(F)cc3Cl)c(Br)cc2NC1=O` (centres unmarked) [BC19778], the pIC50 is at most 4.60.

With `Cc1c(Cl)cc2c(c1S(=O)(=O)Nc1ccc(OC(F)(F)F)cc1)OCC(=O)N2` [BC19490], the pIC50 was at most 4.60.

Consider `CCc1ccc(NS(=O)(=O)c2cc(S(C)(=O)=O)cc3c2OCC(=O)N3)cc1` [BC19484], for which the pIC50 is at most 4.60.

For `CC1Oc2cc(S(=O)(=O)N3CCN(C)CC3)c(Br)cc2NC1=O` (centres unmarked) [BC19219], the pIC50 is at most 4.60.

Regarding `CCC1Oc2c(cc(Br)cc2S(=O)(=O)Nc2cccc(Cl)c2)NC1=O` (centres unmarked) [BC19232], the pIC50 is at most 4.60.

For the molecule `COc1ccc(NS(=O)(=O)c2cc3c(cc2Br)N(C)C(=O)C(C)O3)cc1` (centres unmarked) [BC19795], the pIC50 is at most 4.60.

Turning to `O=C1COc2cc(S(=O)(=O)NCc3ccc(F)cc3F)c(Br)cc2N1` [BC19393], the pIC50 was at most 4.60.

In the case of `CNC(=O)N1CC(=O)Nc2ccc(S(=O)(=O)N3CCCC3)cc21` [BC19183], the pIC50 is 4.60 to 6.00.

As for `O=C1COc2c(cc(Br)cc2S(=O)(=O)NCc2ccc(OC(F)(F)F)cc2)N1` [BC19385], the pIC50 was at most 4.60.

For the molecule `CCc1cccc(NS(=O)(=O)c2cc(S(=O)(=O)CC)cc3c2OCC(=O)N3)c1` [BC19439], the pIC50 is at most 4.60.

On to `O=C1CCOc2cc(S(=O)(=O)Nc3ccccc3)c(Br)cc2N1` [BC19689], for which the pIC50 was at most 4.60.

As for `CCS(=O)(=O)c1cc2c(c(S(=O)(=O)Nc3ccc(C)c(F)c3)c1)OCC(=O)N2` [BC19436], the pIC50 is at most 4.60.

Consider `O=C1NCCOc2c1cc(Br)cc2S(=O)(=O)Nc1ccc(F)cc1Cl` [BC19613], for which the pIC50 is at most 4.60.

As for `CC(C)CC1Oc2c(cc(Br)cc2S(=O)(=O)Nc2ccc(F)c(F)c2)NC1=O` (centres unmarked) [BC19759], the pIC50 is 4.60 to 6.00.

Consider `CN1CC(=O)Nc2ccc(S(=O)(=O)N3CCCC3)cc21` [BC19181], for which the pIC50 is at most 4.60.

Regarding `CCC1Oc2c(cc(Br)cc2S(=O)(=O)NCCc2ccc(OC(F)(F)F)cc2)NC1=O` (centres unmarked) [BC19376], the pIC50 was 4.60 to 6.00.

As to `Cc1ccc(Cl)cc1NS(=O)(=O)c1cc2c(cc1Cl)NC(=O)CO2` [BC19162], the pIC50 was above 6.00.

Take `Cc1ccc(NS(=O)(=O)c2cc(Br)cc3c2OC(C)C(=O)N3)cc1Cl` (centres unmarked) [BC19225]: the pIC50 was at most 4.60.

As to `CCC1Oc2cc(S(=O)(=O)Nc3ccc(OC(F)(F)F)cc3)c(Cl)cc2NC1=O` (centres unmarked) [BC19733], the pIC50 was 4.60 to 6.00.

For the molecule `CC1Oc2cc(S(=O)(=O)Nc3ccc(F)cc3)c(Br)cc2N(C)C1=O` (centres unmarked) [BC19910], the pIC50 is at most 4.60.

With `CS(=O)(=O)c1cc2c(c(S(=O)(=O)Nc3ccc(F)cc3F)c1)OCC(=O)N2` [BC19425], the pIC50 was at most 4.60.

For the molecule `CC1Oc2cc(S(=O)(=O)Nc3ccc(F)cc3Cl)c(Br)cc2N(C)C1=O` (centres unmarked) [BC19907], the pIC50 is at most 4.60.

`CCS(=O)(=O)c1cc2c(c(S(=O)(=O)Nc3ccc(OC(F)(F)F)cc3)c1)OCC(=O)N2` [BC19435]: the pIC50 is at most 4.60.

For the molecule `CCc1ccc(NS(=O)(=O)c2cc3c(cc2Br)NC(=O)CCO3)cc1` [BC19690], the pIC50 was above 6.00.
